This note sets out measurements from ChEMBL document CHEMBL3045994, “Design, synthesis, and anticonvulsant evaluation of some novel 1, 3 benzothiazol-2-yl hydrazones/acetohydrazones” (Med Chem Res, 2012).

Series [1] concerns Mus musculus. The series is described as follows: Neurotoxicity in Mus musculus albino CF1 (mouse) assessed as motor impairment at 100 mg/kg, ip after 2 hr. The class given is toxicity, organism-based. On the set-up: dose 100 mg/kg, route intraperitoneal. As to conditions: in vivo.
Series [2] relates to Mus musculus. Description: Neurotoxicity in Mus musculus albino CF1 (mouse) assessed as motor impairment at 300 mg/kg, ip up to 4 hr. The class given is toxicity, organism-based. Also noted: dose 300 mg/kg, route intraperitoneal. The following applies: in vivo.
Series [3] concerns Mus musculus. Description: Anticonvulsant activity in Mus musculus albino CF1 (mouse) assessed as protection against 6 Hz psychomotor seizure at 100 mg/kg, ip after 4 hr. The class given is functional. As to conditions: route intraperitoneal.
Series [4] deals with Mus musculus. The series is described as follows: Anticonvulsant activity in Mus musculus albino CF1 (mouse) assessed as protection against 6 Hz psychomotor seizure at 100 mg/kg, ip after 1 hr. The class given is functional. As to conditions: route intraperitoneal.
In series [5] the test system is Mus musculus. Description: Neurotoxicity in Mus musculus albino CF1 (mouse) assessed as motor impairment at 100 mg/kg, ip after 4 hr. The class given is toxicity, organism-based. On the set-up: dose 100 mg/kg, route intraperitoneal. As to conditions: in vivo.
In series [6] the test system is Mus musculus. The series is described as follows: Anticonvulsant activity in Mus musculus albino CF1 (mouse) assessed as protection against 6 Hz psychomotor seizure at 100 mg/kg, ip after 0.25 hr. Format: functional. As to conditions: route intraperitoneal.
The test system of series [7] is Mus musculus. The series is described as follows: Anticonvulsant activity in Mus musculus albino CF1 (mouse) assessed as protection against 6 Hz psychomotor seizure at 100 mg/kg, ip after 0.5 hr. The class given is functional. The following applies: route intraperitoneal.
The subject of series [8] is Mus musculus. The series is described as follows: Anticonvulsant activity in Mus musculus albino CF1 (mouse) assessed as protection against 6 Hz psychomotor seizure at 100 mg/kg, ip after 2 hr. The class given is functional. As to conditions: route intraperitoneal.
In series [9] the test system is Mus musculus. Description: Neurotoxicity in Mus musculus albino CF1 (mouse) assessed as motor impairment at 100 mg/kg, ip after 0.25 hr. The class given is toxicity, organism-based. As to conditions: in vivo. On the set-up: dose 100 mg/kg, route intraperitoneal.
A short description of series [10]: Octanol-phosphate buffer partition coefficient, log P of the compound after 24 hr. Format: physicochemical.
Series [11] concerns Mus musculus. The series is described as follows: Neurotoxicity in Mus musculus albino CF1 (mouse) assessed as motor impairment at 100 mg/kg, ip after 1 hr. The class given is toxicity, organism-based. Also noted: dose 100 mg/kg, route intraperitoneal. As to conditions: in vivo.
Series [12] has as its system Mus musculus. The series is described as follows: Neurotoxicity in Mus musculus albino CF1 (mouse) assessed as motor impairment at 100 mg/kg, ip after 0.5 hr. Format: toxicity, organism-based. The following applies: in vivo. Also noted: dose 100 mg/kg, route intraperitoneal.

A word on the logP: it is a log measure of how a compound divides between an organic and an aqueous phase. Higher therefore signals a more lipophilic compound. For the molecule `C(=N\Nc1nc2ccccc2s1)/c1ccc(Oc2ccccc2)cc1`, the Activity result is reported as “Non-toxic” in series [1]; “Non-toxic” in series [2]; 0% in series [3]; 0% in series [4]; “Non-toxic” in series [5]; 0% in series [6]. The Activity in series [7] was 25%; in [8], 50%; in series [9] it was “Non-toxic”; in series [11] it was “Non-toxic”; in series [12] it was “Non-toxic”. Moreover, the logP at 24 h in series [10] is 5.2.

For `O=[N+]([O-])c1ccc(Oc2ccc(/C=N/Nc3nc4ccccc4s3)cc2)cc1`, the Activity result was “Non-toxic” in [1]; “Non-toxic” in [2]; 0% in series [3]; 50% in series [4]; “Non-toxic” in [5]; 50% in series [6]. The Activity in series [7] is 25%; in series [8], 0%; in [9] it was “Non-toxic”; in [11] it was “Non-toxic”; in [12] it was “Non-toxic”. In series [10], the log partition coefficient (logP) at 24 h amounted to 5.1.

With `Cc1ccc(Oc2ccc(/C=N/Nc3nc4ccccc4s3)cc2)cc1`, the Activity result in series [1] is given as “Non-toxic”; in series [2], “Non-toxic”; in [3] it was 0%; in [4] it was 0%; in series [5], “Non-toxic”; in series [6], 25%. Moreover, the Activity in series [7] is 25%; in series [8], 0%; in series [9] it was “Non-toxic”; in series [11], “Non-toxic”; in series [12], “Non-toxic”. The lipophilicity (logP) at 24 h in series [10] stood at 5.4.
